# Experimental data as given in paper PMC9505425, “Targeting of the Mitochondrial TET1 Protein by Pyrrolo[3,2-b]pyrrole Chelators” (International Journal of Molecular Sciences, 2022).
# Several values for one entry are separate records, joined by “and”; a condition that tells them apart may be missing. Identical values can stand only once. Entries after “also recorded” stand apart in the source; their conditions may differ.
# Columns and labels:
# TET1 protein = biological target: T1, TET1 protein (Homo sapiens, UniProt Q8NFU7); assay: Fluorometric TET hydroxylase activity assay with purified TET1 enzyme; assay type: biochemical; details: screened at 10^−7 to 10^−4 M
# T1 construct: purchased Active Motif, Carlsbad, CA, USA
# Procedure: Figure 4 and Table S1 show the dependence of TET1 activity on the concentration of compound 1.
# Compounds 1–6 were tested for the inhibition of the total 5mC hydroxylase TET enzyme using a purified TET1 enzyme (Active Motif, Carlsbad, CA, USA) by a fluorometric TET hydroxylase activity quantification kit (Abcam, Cambridge, UK). A total of 25 µg of purified TET1 protein was diluted in a TET assay buffer in a 5 mL volumetric flask, containing α-ketoglutarate and ferric sulfate. The concentrations of ascorbic acid, α-ketoglutarate, and ferric sulfate in the diluted TET assay buffer were 2, 1, and 0.1 mM, respectively. Tested compounds were dissolved in DMSO to obtain a concentration of 0.01 M. DMSO solutions of compounds 1–6 were then diluted with a TET assay buffer to concentrations of 10^−6, 10^−5, 10^−4, and 10^−3 M (in 10% of DMSO). Subsequently, 50 μL of the final TET assay buffer containing the TET1 protein and 5 μL of chelator’s solution was applied to each sample well. In control wells (TET1 without inhibitors), 5 μL of the final TET assay buffer with 10% DMSO was used instead of chelator’s solution. The final concentrations of chelators in a well plate were 10^−7, 10^−6, 10^−5, 10^−4, and 0 M with less than 1% of final concentration of DMSO. The following steps were performed according to manufacturer’s protocol. The TET1 protein converts methylated substrate to hydroxymethylated products, which could be recognized by a specific antibody. We determined the residual activity of the TET1 protein by measuring a fluorescence intensity on an enzyme-linked immunoabsorbent assay reader (ELISA), Infinite® 200 PRO (Tecan, Switzerland, Switzerland), at an excitation wavelength at 530 nm and an emission wavelength at 590 nm. Each concentration was measured twice within one test, and each test was repeated three times. IC50 values of active inhibitors were determined using GraphPad Prism 8 via nonlinear regression.
# Caov-3 cells = assay: MTT cytotoxicity assay, Caov-3; assay type: cell-based, human
# Procedure: (§1) The effects of the tested compounds 1–6 on HF-P4, U-118 MG, H1299, BT-20, and Caov-3 cell lines were evaluated by the MTT assay during 48 h treatment (Table 2 and Tables S2–S31). In all tested compounds, we recognized a difference in cytotoxicity between healthy cells (HF-P4) and cancer cell lines (BT-20, Caov-3, and H-1299). […] In the case of ovarian cancer, the authors discovered oncogenic and poor prognosis roles of TET1 in epithelial ovarian carcinoma (EOC). TET1 is believed to demethylate the epigenome and activate numerous oncogenic pathways in EOC. The aforementioned study presents a new mechanism where TET1 contributes to tumor development through collaboration with CK2α [21]. The overexpression of the TET1 protein was also found in triple negative breast cancer and was associated with an activation of PI3K/mTOR pathway and decreased overall survival.
# The human ovary adenocarcinoma cell line (Caov-3), purchased from ATCC (Caov-3 (ATCC® HTB-75™), Manassas, VA, USA), was used for the cytotoxicity assay (MTT). Caov-3 cells were cultivated under standard conditions in Dulbecco’s modified Eagle’s medium (ATCC, Manassas, VA, USA) supplemented with 10% FBS and streptomycin (100 μg/mL) at 37 °C at a 5% CO2 atmosphere.
# (§2) For the cytotoxicity assay, we used the following cell lines: human glioblastoma cell line U118-MG, human mammary gland/breast cell line BT-20, human ovary adenocarcinoma cell line Caov-3, and non-small-cell lung carcinoma H-1299. As previously mentioned, these cell lines contain a high level of the TET1 protein, which corresponds to a lower overall survival. In addition to these cell cultures, we used the human dermal fibroblast cell line HF-P4 as a healthy control. Determination of cytotoxicity was performed using the MTT [3-(4,5-dimethylthiazol-2-yl)-2,5-diphenyltetrazolium bromide] colorimetric assay. Viable cells from each cell line were cultured in 96-well plates (VWR, Stříbrná Skalice, Czech Republic) at a density of 1.0 × 10^5 cells per well and allowed to grow for 24 h in 200 μL of recommended medium. After a 1-day incubation, the medium was replaced with solutions of compounds 1–6 at concentration ranges of 0.1–20 μM. Each concentration was measured four times within one test, and the entire test was repeated three times. Tested compounds 1–6 were dissolved in DMSO and then diluted with corresponding medium to a final volume of 200 μL (maximum 1% DMSO). After 48 h exposure, cells were treated with 175 μL of MTT solution (P-LAB, Prague, Czech Republic) for 2 h. In the next step, MTT solution was removed, and 125 μL of DMSO (Penta, Prague, Czech Republic) was added to solubilize dark crystals of formazan formed in intact cells, and absorbance was measured at 570 nm by the enzyme-linked immunoabsorbent assay reader Infinite® 200 PRO (Tecan, Männedorf, Switzerland). The final DMSO concentration was smaller than 1% (v/v). The absorbance of untreated cells was considered 100%, and IC50 values were calculated by the GraphPad Prism 8 software. As a parameter for cytotoxicity, we used a concentration that inhibits 50% of cell growth (IC50).
# BT-20 cells = assay: MTT cytotoxicity assay, BT-20; assay type: cell-based, human
# Procedure: as §1
# The human mammary gland/breast cell line (BT-20), purchased from ATCC (BT-20 (ATCC® HTB-19™), Manassas, VA, USA), was used for the cytotoxicity assay (MTT), and BT-20 cells were cultivated under standard conditions in Eagle’s minimum essential medium (ATCC, Manassas, VA, USA) supplemented with 10% FBS and streptomycin (100 μg/mL) at 37 °C at a 5% CO2 atmosphere.
# as §2
# T1 sequence (Q8NFU7 whole entry): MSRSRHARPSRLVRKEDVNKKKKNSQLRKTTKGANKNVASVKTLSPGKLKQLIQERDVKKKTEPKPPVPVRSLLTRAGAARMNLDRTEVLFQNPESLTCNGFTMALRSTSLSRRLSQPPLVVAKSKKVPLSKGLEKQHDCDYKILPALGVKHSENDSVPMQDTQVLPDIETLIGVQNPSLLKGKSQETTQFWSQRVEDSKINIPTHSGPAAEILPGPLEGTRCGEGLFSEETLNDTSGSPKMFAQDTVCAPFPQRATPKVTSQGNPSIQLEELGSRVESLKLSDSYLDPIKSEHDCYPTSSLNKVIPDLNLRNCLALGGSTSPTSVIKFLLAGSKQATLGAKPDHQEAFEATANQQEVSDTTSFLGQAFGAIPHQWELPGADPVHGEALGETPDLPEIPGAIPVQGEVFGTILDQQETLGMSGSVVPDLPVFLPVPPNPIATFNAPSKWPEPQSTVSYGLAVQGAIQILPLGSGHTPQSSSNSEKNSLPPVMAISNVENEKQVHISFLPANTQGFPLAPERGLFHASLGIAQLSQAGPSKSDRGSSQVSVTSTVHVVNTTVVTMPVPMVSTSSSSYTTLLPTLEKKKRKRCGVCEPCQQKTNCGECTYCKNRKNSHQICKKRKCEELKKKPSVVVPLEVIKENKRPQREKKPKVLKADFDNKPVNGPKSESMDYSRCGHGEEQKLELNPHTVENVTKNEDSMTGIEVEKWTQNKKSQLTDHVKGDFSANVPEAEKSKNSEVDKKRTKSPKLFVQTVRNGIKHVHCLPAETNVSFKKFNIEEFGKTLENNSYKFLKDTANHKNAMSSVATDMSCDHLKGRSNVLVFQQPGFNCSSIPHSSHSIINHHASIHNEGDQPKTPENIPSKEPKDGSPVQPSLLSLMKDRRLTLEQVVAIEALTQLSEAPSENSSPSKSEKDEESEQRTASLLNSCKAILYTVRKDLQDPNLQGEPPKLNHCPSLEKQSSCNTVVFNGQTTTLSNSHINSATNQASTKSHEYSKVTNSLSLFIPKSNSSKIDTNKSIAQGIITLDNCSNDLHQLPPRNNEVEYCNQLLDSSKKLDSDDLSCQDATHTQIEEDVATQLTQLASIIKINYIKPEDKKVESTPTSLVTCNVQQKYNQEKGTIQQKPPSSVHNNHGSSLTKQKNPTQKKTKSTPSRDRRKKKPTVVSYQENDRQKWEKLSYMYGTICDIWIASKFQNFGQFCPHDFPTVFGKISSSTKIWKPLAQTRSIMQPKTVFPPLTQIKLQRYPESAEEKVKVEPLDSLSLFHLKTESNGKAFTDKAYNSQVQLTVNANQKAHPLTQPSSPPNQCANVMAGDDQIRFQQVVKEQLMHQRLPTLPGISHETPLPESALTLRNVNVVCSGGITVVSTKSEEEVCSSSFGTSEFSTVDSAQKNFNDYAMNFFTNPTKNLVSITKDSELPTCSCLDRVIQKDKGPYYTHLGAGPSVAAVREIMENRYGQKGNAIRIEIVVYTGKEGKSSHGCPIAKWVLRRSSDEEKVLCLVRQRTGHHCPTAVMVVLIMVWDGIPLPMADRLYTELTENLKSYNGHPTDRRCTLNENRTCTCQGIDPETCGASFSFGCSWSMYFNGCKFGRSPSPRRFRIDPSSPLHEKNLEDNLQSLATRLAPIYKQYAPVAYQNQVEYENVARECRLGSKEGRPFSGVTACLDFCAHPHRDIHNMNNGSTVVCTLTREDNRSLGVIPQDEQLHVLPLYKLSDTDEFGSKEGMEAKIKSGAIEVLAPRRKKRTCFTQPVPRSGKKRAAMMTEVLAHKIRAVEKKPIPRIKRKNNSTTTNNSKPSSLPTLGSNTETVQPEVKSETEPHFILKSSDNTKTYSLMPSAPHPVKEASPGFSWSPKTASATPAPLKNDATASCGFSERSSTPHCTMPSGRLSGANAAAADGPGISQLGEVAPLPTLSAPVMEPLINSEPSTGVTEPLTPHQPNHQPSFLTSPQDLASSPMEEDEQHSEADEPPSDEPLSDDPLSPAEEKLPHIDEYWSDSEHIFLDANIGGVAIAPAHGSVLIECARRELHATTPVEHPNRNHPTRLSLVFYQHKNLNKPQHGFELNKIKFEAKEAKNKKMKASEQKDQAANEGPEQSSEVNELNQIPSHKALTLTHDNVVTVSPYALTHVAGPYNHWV
smiles,measurement,setting,value
Cc1ccc(-n2c(-c3ccc(C(=O)N/N=C/c4ccc(O)cc4O)cc3)cc3c2cc(-c2ccc(C(=O)N/N=C/c4ccc(O)cc4O)cc2)n3-c2ccc(C)cc2)cc1 [Compound 4],inhibitory activity towards TET1,TET1 protein,no inhibitory effect; also recorded: no significant inhibition
same,Cell viability %,"Caov-3 cells; Caov-3, 100 nM, 48 h, repeats, 0.1 µM",84.95% and 82.17%
same,Cell viability %,"Caov-3 cells; Caov-3, 500 nM, 48 h, repeats, 0.5 µM",102.391% and 108.5681%
same,Cell viability %,"Caov-3 cells; Caov-3, 750 nM, 48 h, repeats, 0.75 µM",102.8833% and 94.08%
same,Cell viability %,"Caov-3 cells; Caov-3, 1 uM, 48 h, repeats, 1 µM",98.73% and 92.87%
same,Cell viability %,"Caov-3 cells; Caov-3, 2.5 uM, 48 h, repeats, 2.5 µM",74.65% and 110.1266% and 69.7%
same,Cell viability %,"Caov-3 cells; Caov-3, 5 uM, 48 h, repeats, 5 µM",50.71% and 80.94% and 55.26%
same,Cell viability %,"Caov-3 cells; Caov-3, 7.5 uM, 48 h, repeats, 7.5 µM",53.66% and 54.17%
same,Cell viability %,"Caov-3 cells; Caov-3, 10 uM, 48 h, repeats, 10 µM",41.07% and 42.6107%
same,Cell viability %,"Caov-3 cells; Caov-3, 15 uM, 48 h, repeats, 15 µM",17.58% and 17.6%
same,Cell viability %,"Caov-3 cells; Caov-3, 20 uM, 48 h, repeats, 20 µM",14.91% and 14.49%
same,viability at 0.1 µM,"Caov-3 cells; Homo sapiens, Caov-3, 48 h, Caov-3, 100 nM, repeats, read-out: Cell viability %",68.6%
same,viability at 0.5 µM,"Caov-3 cells; Homo sapiens, Caov-3, 48 h, Caov-3, 500 nM, repeats, read-out: Cell viability %",104%
same,viability at 0.75 µM,"Caov-3 cells; Homo sapiens, Caov-3, 48 h, Caov-3, 750 nM, repeats, read-out: Cell viability %",92.8%
same,viability at 1 µM,"Caov-3 cells; Homo sapiens, Caov-3, 48 h, Caov-3, 1 uM, repeats, read-out: Cell viability %",101%
same,viability at 7.5 µM,"Caov-3 cells; Homo sapiens, Caov-3, 48 h, Caov-3, 7.5 uM, repeats, read-out: Cell viability %",53.1%
same,viability at 10 µM,"Caov-3 cells; Homo sapiens, Caov-3, 48 h, Caov-3, 10 uM, repeats, read-out: Cell viability %",42.9%
same,viability at 15 µM,"Caov-3 cells; Homo sapiens, Caov-3, 48 h, Caov-3, 15 uM, repeats, read-out: Cell viability %",19.5%
same,viability at 20 µM,"Caov-3 cells; Homo sapiens, Caov-3, 48 h, Caov-3, 20 uM, repeats, read-out: Cell viability %",14.3%
same,IC50,"Caov-3 cells; Homo sapiens, Caov-3, MTT, 48 h",9.13 µM
same,Cell viability %,"BT-20 cells; BT-20, 100 nM, 48 h, repeats, 0.1 µM",89.05% and 76.97% and 98.11%
same,Cell viability %,"BT-20 cells; BT-20, 500 nM, 48 h, repeats, 0.5 µM",90.8088% and 82.57%
same,Cell viability %,"BT-20 cells; BT-20, 750 nM, 48 h, repeats, 0.75 µM",103.1798% and 88.69% and 109.7163%
same,Cell viability %,"BT-20 cells; BT-20, 1 uM, 48 h, repeats, 1 µM",100.5483% and 88.51%
same,Cell viability %,"BT-20 cells; BT-20, 2.5 uM, 48 h, repeats, 2.5 µM",82.74% and 106.2024% and 110.5893%
same,Cell viability %,"BT-20 cells; BT-20, 5 uM, 48 h, repeats, 5 µM",77.52% and 61.62%
same,Cell viability %,"BT-20 cells; BT-20, 7.5 uM, 48 h, repeats, 7.5 µM",44.3% and 44.18%
same,Cell viability %,"BT-20 cells; BT-20, 10 uM, 48 h, repeats, 10 µM",18.92% and 21.27%
same,Cell viability %,"BT-20 cells; BT-20, 15 uM, 48 h, repeats, 15 µM",8.454% and 10.83%
same,Cell viability %,"BT-20 cells; BT-20, 20 uM, 48 h, repeats, 20 µM",9.864% and 12.92%
same,viability at 0.5 µM,"BT-20 cells; Homo sapiens, BT-20, 48 h, BT-20, 500 nM, repeats, read-out: Cell viability %",77.8%
same,viability at 1 µM,"BT-20 cells; Homo sapiens, BT-20, 48 h, BT-20, 1 uM, repeats, read-out: Cell viability %",96.3%
same,viability at 5 µM,"BT-20 cells; Homo sapiens, BT-20, 48 h, BT-20, 5 uM, repeats, read-out: Cell viability %",73.5%
same,viability at 7.5 µM,"BT-20 cells; Homo sapiens, BT-20, 48 h, BT-20, 7.5 uM, repeats, read-out: Cell viability %",37.5%
same,viability at 10 µM,"BT-20 cells; Homo sapiens, BT-20, 48 h, BT-20, 10 uM, repeats, read-out: Cell viability %",20.1%
same,viability at 15 µM,"BT-20 cells; Homo sapiens, BT-20, 48 h, BT-20, 15 uM, repeats, read-out: Cell viability %",8.06%
same,viability at 20 µM,"BT-20 cells; Homo sapiens, BT-20, 48 h, BT-20, 20 uM, repeats, read-out: Cell viability %",8.37%
same,IC50,"BT-20 cells; Homo sapiens, BT-20, MTT, 48 h",6.22 µM
